The results in this text go back to publication PMC10786919, “Design-rules for stapled peptides with in vivo activity and their application to Mdm2/X antagonists” (Nature Communications, 2024).

As usually defined, the logD is lipophilicity at a set pH, counting ionised and neutral species. Lower therefore signals lower lipophilicity. By EC50 is commonly meant the concentration giving half of the maximal effect. The low end stands for a more potent agent, the high end for a less potent agent.

Series [1] in a line: Solubility assay (kinetic solubility, PBS pH 7). Type of series: physicochemical. The note with it: pH 7, PBS; for solubility kinetic: pH 7, aqueous buffer, kinetic from dmso stock, read-out: Solubility. The method, boiled down: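 Next, measure peak areas of sample and standard. Finally, multiply their ratio by the standard concentration to obtain solubility (µM).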
The nature of series [2]: Experimental LogD (partition coefficient). The note with it: for logD: not stated, Partition Coeff LogD.
A short description of the next series: EPSA. Type of series: physicochemical.
Series [3] in a line: Lactate dehydrogenase (LDH) release assay. The note with it: LDH: Cytotoxicity assay: EC50. Type of series: cell-based. The essentials:
(§1)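 Membrane damage measured as lactate dehydrogenase release (CytoTox-ONE kit) from p53-responsive β-lactamase reporter HCT116 cells plated at 8000 per well. Final DMSO 0.5%; geometric mean reported from a minimum of three biological replicates.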

A short description of a further series: in vitro. The note with it: Nanoclick permeability assay EC50. The method, boiled down: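 Azido-peptide permeability was read as loss of NanoBRET signal (donor 450 nm, acceptor 610 nm) after adding NanoBret618-azide at 10 μM final.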
For a further series, the system named is HCT116 cells. The series is described as follows: Lactate dehydrogenase (LDH) release assay. Format: cell-based. The method, boiled down:
as §1

Structures are written as SMILES. In brackets after ≈: the same amount, converted by molar mass. Where two headings read alike, the source gives them in different places. Positions of bridges follow the written chain, without caps; N, C: chain ends. Non-standard residues stand in square brackets, D forms with d. Residues, ends and D or L forms follow the SMILES beside them. Lys(N3) = [N-]=[N+]=NCCCC[C@H](N)C(=O)O; R8 = C=CCCCCCC[C@@](C)(N)C(=O)O; Cba = N[C@@H](CC1CCC1)C(=O)O; S5 = C=CCCC[C@](C)(N)C(=O)O; βAla = NCCC(=O)O Where only a bound is given, the exact number is not on record here.

Consider `CC(=O)N[C@@H](CCCCN=[N+]=[N-])C(=O)NCCC(=O)N[C@@H](CC(C)C)C(=O)N[C@H](C(=O)N[C@@H](CCC(=O)O)C(=O)N[C@]1(C)CCCCCCC=CCCC[C@@](C)(C(=O)N[C@@H](CO)C(=O)N[C@@H](C)C(=O)N[C@@H](C)C(N)=O)NC(=O)[C@H](CC2CCC2)NC(=O)[C@H](CCC(N)=O)NC(=O)[C@H](C)NC(=O)[C@H](Cc2c[nH]c3ccccc23)NC(=O)[C@H](Cc2ccc(O)cc2)NC(=O)[C@H](Cc2ccccc2)NC1=O)[C@@H](C)O` [MP-123] (Ac-[Lys(N3)][βAla]LTE[R8]FYWAQ[Cba][S5]SAA-NH2; staple 6-13), for which the solubility kinetic in series [1] turned out to be 2 µM (≈ 3.94 µg/mL). Besides, the logD in series [2] worked out at 2.66. Further, in “EPSA” (EPSA), the EPSA came out at 197 A^2. Besides, the EC50 in series [3] was more than 50.7 µM. Moreover, the cell entry EC50 in the series “in vitro” turned out to be 0.682 µM.
Taken in the same sequence, the figures for `CC(=O)N[C@@H](CCCCN=[N+]=[N-])C(=O)NCCC(=O)N[C@@H](CC(C)C)C(=O)N[C@H](C(=O)N[C@@H](Cc1ccccc1)C(=O)N[C@@]1(C)CCCCCCC=CCCC[C@@](C)(C(=O)N[C@@H](CO)C(=O)N[C@@H](C)C(=O)N[C@@H](C)C(N)=O)NC(=O)[C@H](CC2CCC2)NC(=O)[C@H](CCC(N)=O)N(C)C(=O)[C@H](C)NC(=O)[C@H](Cc2c[nH]c3ccccc23)NC(=O)[C@H](Cc2ccc(O)cc2)NC(=O)[C@H](CCC(=O)O)NC1=O)[C@@H](C)O` [MP-297] were 108 µM (≈ 213 µg/mL), 2.5, 183 A^2, more than 50.7 µM and 1.53 µM.
On to `CC(C)C[C@H](NC(=O)[C@@H](N)CCCCN=[N+]=[N-])C(=O)N[C@H](C(=O)N[C@@H](Cc1ccccc1)C(=O)N[C@]1(C)CCCCCCC=CCCC[C@@](C)(C(=O)N[C@@H](CCC(=O)O)C(N)=O)NC(=O)[C@H](CC2CCC2)NC(=O)[C@H](CCC(N)=O)NC(=O)[C@H](C)NC(=O)[C@H](Cc2c[nH]c3ccccc23)NC(=O)[C@H](Cc2ccc(O)cc2)NC(=O)[C@H](CCC(=O)O)NC1=O)[C@@H](C)O` [MP-4009] (H-[Lys(N3)]LTF[R8]EYWAQ[Cba][S5]E-NH2; staple 5-12), for which, in series [1], the Solubility result is recorded as “Poorly Behaved”. Moreover, the “Partition Coeff LogD” value in series [2] was “Poorly Behaved”. The EPSA result in the series “EPSA” is “Poorly Behaved”. For the same compound, in series [3], the 50% effective concentration (EC50) was more than 50 µM. In the series on HCT116 cells, the “LDH: Cytotoxicity assay: % Effect” value is on record as -2.907%.
Regarding `CC(=O)N[C@H](C)C(=O)N[C@H](C)C(=O)N[C@H](C)C(=O)N[C@H](C)C(=O)N[C@H](C)C(=O)N[C@H](C)C(=O)N[C@H](C)C(=O)N[C@H](C)C(=O)N[C@@H](CC(C)C)C(=O)N[C@H](C(=O)N[C@@H](Cc1ccccc1)C(=O)N[C@]1(C)CCCCCCC=CCCC[C@@](C)(C(=O)N[C@@H](CO)C(=O)N[C@@H](C)C(=O)N[C@@H](C)C(N)=O)NC(=O)[C@H](CC2CCC2)NC(=O)[C@H](CCC(N)=O)NC(=O)[C@H](C)NC(=O)[C@H](Cc2c[nH]c3ccccc23)NC(=O)[C@H](Cc2ccc(O)cc2)NC(=O)[C@H](CCC(=O)O)NC1=O)[C@@H](C)O` [MP-414] (Ac-[dA][dA][dA][dA][dA][dA][dA][dA]LTF[R8]EYWAQ[Cba][S5]SAA-NH2; staple 12-19), the solubility kinetic in series [1] was found to be 35 µM (≈ 81 µg/mL). For the same compound, the logD in series [2] came out at 2.65. The compound further showed an EPSA in the series “EPSA” (EPSA) of 210 A^2. This compound registered a half-maximal effective concentration (EC50) in series [3] of more than 50.7 µM. The “LDH: Cytotoxicity assay: % Effect” value with HCT116 cells is reported as -4.321%.
Take `CC(=O)N[C@@H](CCCNC(=N)N)C(=O)N[C@@H](CCCNC(=N)N)C(=O)NCCCCCC(=O)N[C@@H](CC(C)C)C(=O)N[C@H](C(=O)N[C@@H](Cc1ccccc1)C(=O)N[C@]1(C)CCCCCCC=CCCC[C@@](C)(C(=O)N[C@@H](CO)C(=O)N[C@@H](C)C(=O)N[C@@H](C)C(N)=O)NC(=O)[C@H](CC2CCC2)NC(=O)[C@H](CCC(N)=O)NC(=O)[C@H](C)NC(=O)[C@H](Cc2c[nH]c3ccccc23)NC(=O)[C@H](Cc2ccc(O)cc2)NC(=O)[C@H](CCC(=O)O)NC1=O)[C@@H](C)O` [MP-003]: the solubility kinetic in series [1] worked out at 6 µM (≈ 13 µg/mL). This compound also gave a logD in series [2] of 2.51. This compound also gave an EPSA in the series “EPSA” (EPSA) of 207 A^2. This compound also had an EC50 in series [3] of 31 µM. For the same compound, the “LDH: Cytotoxicity assay: % Effect” value with HCT116 cells was determined as 46.5%.
